Target: T1, 1-deoxy-D-xylulose-5-phosphate synthase (Escherichia coli (strain K12), UniProt P77488)
T1 sequence (P77488 whole entry): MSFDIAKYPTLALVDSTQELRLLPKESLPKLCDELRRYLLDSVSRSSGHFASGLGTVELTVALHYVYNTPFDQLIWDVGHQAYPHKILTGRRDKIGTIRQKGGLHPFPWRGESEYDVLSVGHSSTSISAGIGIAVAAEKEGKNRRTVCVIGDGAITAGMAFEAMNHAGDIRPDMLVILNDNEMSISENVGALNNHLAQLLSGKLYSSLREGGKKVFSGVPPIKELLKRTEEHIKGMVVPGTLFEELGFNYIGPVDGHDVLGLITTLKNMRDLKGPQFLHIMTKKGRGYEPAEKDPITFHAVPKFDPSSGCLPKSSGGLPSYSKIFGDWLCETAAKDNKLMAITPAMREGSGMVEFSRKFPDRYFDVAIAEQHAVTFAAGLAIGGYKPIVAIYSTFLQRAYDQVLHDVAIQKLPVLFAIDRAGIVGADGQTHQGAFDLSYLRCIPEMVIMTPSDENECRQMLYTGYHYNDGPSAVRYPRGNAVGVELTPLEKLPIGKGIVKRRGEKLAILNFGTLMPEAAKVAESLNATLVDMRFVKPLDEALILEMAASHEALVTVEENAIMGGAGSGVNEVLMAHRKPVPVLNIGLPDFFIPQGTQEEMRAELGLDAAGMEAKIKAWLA
Assay: DXP Synthase Inhibition Assay
Conditions: pH 8; 37 °C
Experimental: Reaction mixtures containing HEPES (100mM, pH 8.0, 2mM MgCl2, 5mM NaCl), ThDP (1mM), BSA (1mg/mL), DMSO (10%, v/v), ᴅ-GAP (30µM), pyruvate (80µM), and various concentrations of nitroso inhibitor were preincubated at 37°C for 5 min. Enzyme reactions were initiated by addition of DXP synthase (0.1µM). Aliquots (150µL) of the enzymatic mixture were removed between 0.5 and 3 min and quenched in ice-cold methanol (150µL).

Cc1nn(C(C)C)c(C)c1N=O [1‐isopropyl‐3,5‐dimethyl‐4‐nitrosopyrazole (Substrate 9)]
IC50: > 2000 µM

COc1ccc2ccc(O)c(N=O)c2c1 [7‐methoxy‐1‐nitrosonaphthalen‐2‐ol (Substrate 8)]
IC50: > 2000 µM

O=Nc1ccccc1 [NOB]
IC50: 208 µM

CN(C)c1ccc(N=O)cc1 [NDMA (Substrate 4)]
IC50: 844 µM
